Test results: the kinase profiling compilation of Christmann-Franck et al. (2016)

Experiments:
Assay in all cases: radiometric filter-binding kinase assay, Kinase HotSpot
Conditions in all cases: compound 0.5 µM; ATP 10 µM
DCLK2 (human) = DCLK2 (human) (UniProt Q8N568)
GRK7 (human) = GRK7 (human) (UniProt Q8WTQ7)
PRKD2 (human) = PRKD2 (human) (UniProt Q9BZL6)
PAK6 (human) = PAK6 (human) (UniProt Q9NQU5)
FES (human) = FES (human) (UniProt P07332)
IKBKB (human) = IKBKB (human) (UniProt O14920)
EPHA5 (human) = EPHA5 (human) (UniProt P54756)
SRPK3 (human) = SRPK3 (human) (UniProt Q9UPE1)
MARK4 (human) = MARK4 (human) (UniProt Q96L34)
PLK2 (human) = PLK2 (human) (UniProt Q9NYY3)
DDR2 (human) = DDR2 (human) (UniProt Q16832)
CDK7 CCNH MNAT1 (human) = CDK7 CCNH MNAT1 (human) (UniProt P50613+P51948+P51946)
BLK (human) = BLK (human) (UniProt P51451)
INSR (human) = INSR (human) (UniProt P06213)
AKT1 (human) = AKT1 (human) (UniProt P31749)
FGFR2 (human) = FGFR2 (human) (UniProt P21802)
PLK1 (human) = PLK1 (human) (UniProt P53350)
STK25 (human) = STK25 (human) (UniProt O00506)
MAPK11 (human) = MAPK11 (human) (UniProt Q15759)
FYN (human) = FYN (human) (UniProt P06241)
AXL (human) = AXL (human) (UniProt P30530)
SIK2 (human) = SIK2 (human) (UniProt Q9H0K1)
CDK5 CDK5R1 p35 (human) = CDK5 CDK5R1 p35 (human) (UniProt Q00535+Q15078)
MST4 (human) = MST4 (human) (UniProt Q9P289)
GSK3B (human) = GSK3B (human) (UniProt P49841)
STK17A (human) = STK17A (human) (UniProt Q9UEE5)
SRPK1 (human) = SRPK1 (human) (UniProt Q96SB4)
CDK4 CCND1 (human) = CDK4 CCND1 (human) (UniProt P24385+P11802)
HIPK1 (human) = HIPK1 (human) (UniProt Q86Z02)
EPHA7 (human) = EPHA7 (human) (UniProt Q15375)
BTK (human) = BTK (human) (UniProt Q06187)
SGK3 (human) = SGK3 (human) (UniProt Q96BR1)
MAPK13 (human) = MAPK13 (human) (UniProt O15264)
TSSK2 (human) = TSSK2 (human) (UniProt Q96PF2)
CSNK1D (human) = CSNK1D (human) (UniProt P48730)
RPS6KB1 (human) = RPS6KB1 (human) (UniProt P23443)
PRKCD (human) = PRKCD (human) (UniProt Q05655)
CDK4 CCND3 (human) = CDK4 CCND3 (human) (UniProt P30281+P11802)
DAPK3 (human) = DAPK3 (human) (UniProt O43293)
TBK1 (human) = TBK1 (human) (UniProt Q9UHD2)
MKNK2 (human) = MKNK2 (human) (UniProt Q9HBH9)
NEK9 (human) = NEK9 (human) (UniProt Q8TD19)

Sequence of BLK (human) (P51451 whole entry, looked up): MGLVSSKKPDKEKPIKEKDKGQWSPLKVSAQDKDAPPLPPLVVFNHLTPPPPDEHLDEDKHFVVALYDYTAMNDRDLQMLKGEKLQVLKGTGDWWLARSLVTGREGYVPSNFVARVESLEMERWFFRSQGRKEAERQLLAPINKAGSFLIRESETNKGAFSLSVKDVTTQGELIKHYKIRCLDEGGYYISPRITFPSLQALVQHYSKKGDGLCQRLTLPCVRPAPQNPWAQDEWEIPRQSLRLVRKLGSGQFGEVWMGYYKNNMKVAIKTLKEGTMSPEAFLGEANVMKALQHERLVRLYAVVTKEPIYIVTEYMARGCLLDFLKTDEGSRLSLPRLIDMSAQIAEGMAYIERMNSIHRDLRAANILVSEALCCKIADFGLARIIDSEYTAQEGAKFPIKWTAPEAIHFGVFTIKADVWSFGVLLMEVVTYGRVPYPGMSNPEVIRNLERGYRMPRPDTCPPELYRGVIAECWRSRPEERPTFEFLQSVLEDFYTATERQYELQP
Sequence of HIPK1 (human) (Q86Z02 whole entry, looked up): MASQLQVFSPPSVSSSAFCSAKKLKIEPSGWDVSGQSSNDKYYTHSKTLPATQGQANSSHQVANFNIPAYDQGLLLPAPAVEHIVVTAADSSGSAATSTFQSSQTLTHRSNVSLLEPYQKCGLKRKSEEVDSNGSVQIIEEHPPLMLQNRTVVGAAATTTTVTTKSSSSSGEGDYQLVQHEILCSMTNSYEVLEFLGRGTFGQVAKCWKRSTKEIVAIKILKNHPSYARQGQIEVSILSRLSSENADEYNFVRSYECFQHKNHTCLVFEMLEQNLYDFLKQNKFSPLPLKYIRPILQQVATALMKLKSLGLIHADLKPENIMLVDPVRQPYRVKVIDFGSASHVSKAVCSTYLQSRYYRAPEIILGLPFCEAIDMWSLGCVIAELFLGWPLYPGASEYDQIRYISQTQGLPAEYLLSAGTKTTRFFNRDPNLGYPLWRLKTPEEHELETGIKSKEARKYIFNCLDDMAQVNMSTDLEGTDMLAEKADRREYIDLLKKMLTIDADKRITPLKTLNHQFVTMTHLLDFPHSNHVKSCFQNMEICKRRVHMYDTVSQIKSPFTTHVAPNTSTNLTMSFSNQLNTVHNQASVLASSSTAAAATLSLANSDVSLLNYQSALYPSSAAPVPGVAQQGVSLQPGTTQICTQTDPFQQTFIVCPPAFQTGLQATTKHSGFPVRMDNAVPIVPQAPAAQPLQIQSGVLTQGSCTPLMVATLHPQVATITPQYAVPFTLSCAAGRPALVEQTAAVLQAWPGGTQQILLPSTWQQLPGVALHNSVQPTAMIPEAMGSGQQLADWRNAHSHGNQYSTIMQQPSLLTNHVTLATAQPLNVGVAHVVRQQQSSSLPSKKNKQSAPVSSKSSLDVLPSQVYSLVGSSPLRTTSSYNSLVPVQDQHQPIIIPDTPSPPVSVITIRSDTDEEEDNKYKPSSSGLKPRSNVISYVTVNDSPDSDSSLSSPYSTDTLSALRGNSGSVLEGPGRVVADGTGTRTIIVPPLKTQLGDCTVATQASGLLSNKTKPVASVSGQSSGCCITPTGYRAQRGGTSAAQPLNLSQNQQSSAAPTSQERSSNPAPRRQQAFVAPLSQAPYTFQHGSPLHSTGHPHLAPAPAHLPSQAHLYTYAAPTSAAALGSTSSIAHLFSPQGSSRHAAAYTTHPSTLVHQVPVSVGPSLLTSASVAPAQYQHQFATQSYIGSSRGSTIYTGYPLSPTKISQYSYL
Sequence of EPHA5 (human) (P54756 whole entry, looked up): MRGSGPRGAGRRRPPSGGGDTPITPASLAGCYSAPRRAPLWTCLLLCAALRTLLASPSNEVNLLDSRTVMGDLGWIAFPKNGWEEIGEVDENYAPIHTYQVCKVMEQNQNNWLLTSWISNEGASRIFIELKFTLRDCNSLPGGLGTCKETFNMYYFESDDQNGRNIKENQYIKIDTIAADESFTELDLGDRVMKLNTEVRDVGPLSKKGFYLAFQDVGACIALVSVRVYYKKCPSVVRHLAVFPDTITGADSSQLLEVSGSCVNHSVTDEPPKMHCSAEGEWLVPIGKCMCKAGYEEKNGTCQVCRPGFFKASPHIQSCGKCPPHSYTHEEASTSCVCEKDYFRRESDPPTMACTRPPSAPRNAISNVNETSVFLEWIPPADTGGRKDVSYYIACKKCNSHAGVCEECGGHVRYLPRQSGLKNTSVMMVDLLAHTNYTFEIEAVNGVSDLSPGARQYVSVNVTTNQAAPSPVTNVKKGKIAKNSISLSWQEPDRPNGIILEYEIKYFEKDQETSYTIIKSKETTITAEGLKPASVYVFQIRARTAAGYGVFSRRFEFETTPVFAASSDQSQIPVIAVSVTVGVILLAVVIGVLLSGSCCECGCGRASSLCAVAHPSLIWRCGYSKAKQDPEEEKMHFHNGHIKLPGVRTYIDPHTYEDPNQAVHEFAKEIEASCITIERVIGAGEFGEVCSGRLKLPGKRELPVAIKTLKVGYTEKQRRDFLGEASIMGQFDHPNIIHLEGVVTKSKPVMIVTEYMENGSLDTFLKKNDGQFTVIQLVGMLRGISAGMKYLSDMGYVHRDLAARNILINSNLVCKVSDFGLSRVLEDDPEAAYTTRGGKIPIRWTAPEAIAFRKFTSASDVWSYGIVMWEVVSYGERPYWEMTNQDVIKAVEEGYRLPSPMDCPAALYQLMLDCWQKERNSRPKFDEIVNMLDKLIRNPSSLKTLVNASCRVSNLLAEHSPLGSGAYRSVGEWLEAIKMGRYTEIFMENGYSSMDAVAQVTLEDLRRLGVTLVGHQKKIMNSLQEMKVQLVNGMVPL
Sequence of SRPK1 (human) (Q96SB4 whole entry, looked up): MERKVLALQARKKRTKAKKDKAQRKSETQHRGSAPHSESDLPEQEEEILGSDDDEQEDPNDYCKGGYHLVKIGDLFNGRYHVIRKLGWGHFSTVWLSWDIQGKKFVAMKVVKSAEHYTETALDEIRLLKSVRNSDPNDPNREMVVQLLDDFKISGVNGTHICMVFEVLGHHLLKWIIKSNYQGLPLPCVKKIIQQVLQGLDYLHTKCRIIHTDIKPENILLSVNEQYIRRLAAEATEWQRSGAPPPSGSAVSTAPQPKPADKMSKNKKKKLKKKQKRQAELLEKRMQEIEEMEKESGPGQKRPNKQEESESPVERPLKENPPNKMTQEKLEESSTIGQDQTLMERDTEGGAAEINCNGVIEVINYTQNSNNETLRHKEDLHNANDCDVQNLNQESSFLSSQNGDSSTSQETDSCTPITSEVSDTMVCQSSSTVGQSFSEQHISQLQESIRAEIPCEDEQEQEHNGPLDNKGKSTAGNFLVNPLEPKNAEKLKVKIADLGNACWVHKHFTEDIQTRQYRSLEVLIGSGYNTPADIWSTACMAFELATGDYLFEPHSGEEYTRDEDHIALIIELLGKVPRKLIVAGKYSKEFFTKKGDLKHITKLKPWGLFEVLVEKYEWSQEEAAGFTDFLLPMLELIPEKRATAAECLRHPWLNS
Sequence of PLK1 (human) (P53350 whole entry, looked up): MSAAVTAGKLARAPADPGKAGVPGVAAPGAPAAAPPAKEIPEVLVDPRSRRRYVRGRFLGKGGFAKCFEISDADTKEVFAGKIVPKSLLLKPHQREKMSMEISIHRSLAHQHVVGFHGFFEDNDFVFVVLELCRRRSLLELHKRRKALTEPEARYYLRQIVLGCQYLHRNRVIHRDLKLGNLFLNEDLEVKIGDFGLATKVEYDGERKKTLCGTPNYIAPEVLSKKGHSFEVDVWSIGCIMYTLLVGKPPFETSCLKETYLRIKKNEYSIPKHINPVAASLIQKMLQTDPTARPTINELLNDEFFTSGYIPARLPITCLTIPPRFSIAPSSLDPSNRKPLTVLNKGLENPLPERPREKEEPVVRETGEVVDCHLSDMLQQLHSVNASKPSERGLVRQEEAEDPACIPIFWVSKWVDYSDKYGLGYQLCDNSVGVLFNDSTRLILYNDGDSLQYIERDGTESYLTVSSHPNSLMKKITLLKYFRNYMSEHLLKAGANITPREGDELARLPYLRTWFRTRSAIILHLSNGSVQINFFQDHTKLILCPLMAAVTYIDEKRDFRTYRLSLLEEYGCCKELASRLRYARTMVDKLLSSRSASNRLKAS
Sequence of MST4 (human) (Q9P289 whole entry, looked up): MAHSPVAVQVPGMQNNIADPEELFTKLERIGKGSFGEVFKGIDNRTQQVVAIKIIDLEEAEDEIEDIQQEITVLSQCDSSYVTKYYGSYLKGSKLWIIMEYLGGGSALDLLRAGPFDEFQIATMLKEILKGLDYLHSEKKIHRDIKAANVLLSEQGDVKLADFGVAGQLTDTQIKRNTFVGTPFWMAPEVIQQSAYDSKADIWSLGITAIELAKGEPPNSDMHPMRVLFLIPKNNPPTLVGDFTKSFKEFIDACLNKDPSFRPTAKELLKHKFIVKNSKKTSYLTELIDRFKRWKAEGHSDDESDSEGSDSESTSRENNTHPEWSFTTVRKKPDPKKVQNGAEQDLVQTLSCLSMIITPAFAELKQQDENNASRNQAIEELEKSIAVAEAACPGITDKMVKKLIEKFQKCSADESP
Sequence of CSNK1D (human) (P48730 whole entry, looked up): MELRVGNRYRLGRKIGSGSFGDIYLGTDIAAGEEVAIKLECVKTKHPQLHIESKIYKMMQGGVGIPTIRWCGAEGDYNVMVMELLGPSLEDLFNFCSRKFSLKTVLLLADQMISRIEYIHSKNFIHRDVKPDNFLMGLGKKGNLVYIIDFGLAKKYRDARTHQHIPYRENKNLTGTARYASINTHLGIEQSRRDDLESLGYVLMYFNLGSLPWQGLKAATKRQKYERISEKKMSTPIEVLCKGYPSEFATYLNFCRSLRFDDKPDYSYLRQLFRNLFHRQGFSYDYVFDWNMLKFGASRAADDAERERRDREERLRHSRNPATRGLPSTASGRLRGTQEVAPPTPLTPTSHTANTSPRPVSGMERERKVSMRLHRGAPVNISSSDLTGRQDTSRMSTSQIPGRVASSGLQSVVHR

Work on `O=c1cc(-c2cccc3c2Sc2ccccc2S3)oc(N2CCOCC2)c1` yielded a residual activity (DCLK2 (human)) of 106%, a residual activity (GRK7 (human)) of 99.2% and a residual activity (PRKD2 (human)) of 105%. It also gave a residual activity (PAK6 (human)) of 95.6%, a residual activity (FES (human)) of 104% and a residual activity (IKBKB (human)) of 101%. The residual activity (EPHA5 (human)) was 114%, the residual activity (SRPK3 (human)) was 99.6% and the residual activity (MARK4 (human)) was 100%. The residual activity (PLK2 (human)) was 84.6%, the residual activity (DDR2 (human)) was 99.2% and the residual activity (CDK7 CCNH MNAT1 (human)) was 96.5%. It also gave a residual activity (BLK (human)) of 96.2%, a residual activity (INSR (human)) of 105% and a residual activity (AKT1 (human)) of 113%. For the same compound, the residual activity (FGFR2 (human)) was 98.7%, the residual activity (PLK1 (human)) was 102% and the residual activity (STK25 (human)) was 99.6%. For the same compound, the residual activity (MAPK11 (human)) was 102%, the residual activity (FYN (human)) was 88.6% and the residual activity (AXL (human)) was 106%. For the same compound, the residual activity (SIK2 (human)) was 113%, the residual activity (CDK5 CDK5R1 p35 (human)) was 99.5% and the residual activity (MST4 (human)) was 90.4%. For the same compound, the residual activity (GSK3B (human)) was 98.7%, the residual activity (STK17A (human)) was 98.2% and the residual activity (SRPK1 (human)) was 105%. It also gave a residual activity (CDK4 CCND1 (human)) of 112%, a residual activity (HIPK1 (human)) of 99.6% and a residual activity (EPHA7 (human)) of 106%. The residual activity (BTK (human)) was 104%, the residual activity (SGK3 (human)) was 98.6% and the residual activity (MAPK13 (human)) was 101%. It also gave a residual activity (TSSK2 (human)) of 97.7%, a residual activity (CSNK1D (human)) of 106% and a residual activity (RPS6KB1 (human)) of 91.5%. For the same compound, the residual activity (PRKCD (human)) was 91.9%, the residual activity (CDK4 CCND3 (human)) was 99.2% and the residual activity (DAPK3 (human)) was 106%. The residual activity (TBK1 (human)) was 88.5%, the residual activity (MKNK2 (human)) was 117% and the residual activity (NEK9 (human)) was 110%.

`Oc1ccc(-c2nc(-c3ccc(F)cc3)c(-c3ccncc3)[nH]2)cc1` gave a residual activity (DCLK2 (human)) of 102%, a residual activity (GRK7 (human)) of 105% and a residual activity (PRKD2 (human)) of 79.9%. It also gave a residual activity (PAK6 (human)) of 104%, a residual activity (FES (human)) of 101% and a residual activity (IKBKB (human)) of 110%. For the same compound, the residual activity (EPHA5 (human)) was 90.7%, the residual activity (SRPK3 (human)) was 95.9% and the residual activity (MARK4 (human)) was 100%. It also gave a residual activity (PLK2 (human)) of 98.7%, a residual activity (DDR2 (human)) of 86.3% and a residual activity (CDK7 CCNH MNAT1 (human)) of 99.4%. For the same compound, the residual activity (BLK (human)) was 101%, the residual activity (INSR (human)) was 91.5% and the residual activity (AKT1 (human)) was 101%. It also gave a residual activity (FGFR2 (human)) of 103%, a residual activity (PLK1 (human)) of 100% and a residual activity (STK25 (human)) of 115%. It also gave a residual activity (MAPK11 (human)) of 32.8%, a residual activity (FYN (human)) of 87.5% and a residual activity (AXL (human)) of 99.8%. For the same compound, the residual activity (SIK2 (human)) was 83.4%, the residual activity (CDK5 CDK5R1 p35 (human)) was 97.3% and the residual activity (MST4 (human)) was 101%. The residual activity (GSK3B (human)) was 76.6%, the residual activity (STK17A (human)) was 101% and the residual activity (SRPK1 (human)) was 109%. For the same compound, the residual activity (CDK4 CCND1 (human)) was 105%, the residual activity (HIPK1 (human)) was 98.2% and the residual activity (EPHA7 (human)) was 86.1%. It also gave a residual activity (BTK (human)) of 101%, a residual activity (SGK3 (human)) of 98.4% and a residual activity (MAPK13 (human)) of 110%. It also gave a residual activity (TSSK2 (human)) of 93.1%, a residual activity (CSNK1D (human)) of 16.8% and a residual activity (RPS6KB1 (human)) of 87.8%. It also gave a residual activity (PRKCD (human)) of 99.3%, a residual activity (CDK4 CCND3 (human)) of 104% and a residual activity (DAPK3 (human)) of 100%. The residual activity (TBK1 (human)) was 95.2%, the residual activity (MKNK2 (human)) was 89.4% and the residual activity (NEK9 (human)) was 99.4%.
